Read-outs that look alike come from different tables or passages of the source.
Target: T1, rσNS (Reovirus type 3, UniProt P03526)
T1 construct: made in house; host or cells: E. coli RR1 (pRK248cIts) carrying pRC23-S3
Assay: Inhibition of binding of reovirus ssRNA to rσNS by ribonucleotides
Conditions: for remaining activity at 10000 µM: ribonucleotide 10 mM
Protocol: In a preliminary experiment it was noticed that the capacity of rσNS to bind (ss) RNAs was abolished if all four ribonucleotides were included in the reaction mixture. The ability of each of the four ribonucleotides (ATP, CTP, GTP, and UTP) to inhibit binding was then examined. […] With the amount of rσNS used in these experiments (130 ng per reaction) GTP inhibition was evident between 0.5 mM and 1 mM (Table 3). The other three ribonucleotides caused little interference with binding even at concentrations of 10 mM (Table 3). This was an important observation for developing σNS as a concentrator of (ss) RNA in test samples to be used in hybridization probe assays. […] The isolated (ss) RNA can then be treated with the hybridization probe in a conventional manner. Obviously since the binding of the σNS protein with the (ss) RNA is non-specific, the specificity of the assay is fully determined by the specificity of the hybridization probe for the desired RNA being assayed.

[1] = read-out: % of [32P]-labeled reovirus ssRNA retained on nitrocellulose membrane, expressed as percentage of control, EXP. 1, ribonucleotide 2 mM (mixture 2 mM each), 130 ng rσNS per reaction
[2] = read-out: % of [32P]-labeled reovirus ssRNA retained on nitrocellulose membrane, expressed as percentage of control, EXP. 2

T1 sequence (P03526 whole entry): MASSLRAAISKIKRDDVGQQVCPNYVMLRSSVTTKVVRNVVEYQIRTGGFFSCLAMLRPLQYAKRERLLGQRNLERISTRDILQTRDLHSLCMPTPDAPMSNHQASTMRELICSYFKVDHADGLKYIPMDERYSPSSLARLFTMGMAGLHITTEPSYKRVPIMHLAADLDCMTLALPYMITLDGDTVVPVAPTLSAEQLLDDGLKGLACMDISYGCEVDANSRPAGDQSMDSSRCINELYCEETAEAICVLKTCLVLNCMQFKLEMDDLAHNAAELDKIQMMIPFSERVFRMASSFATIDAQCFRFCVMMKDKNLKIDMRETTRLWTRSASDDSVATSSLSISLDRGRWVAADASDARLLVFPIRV

Row | Structure (SMILES) | remaining activity at 2000 µM [1] | remaining activity at 10000 µM [2] | remaining activity at 100 µM (read-out: % of [32P]-labeled reovirus ssRNA retained on nitrocellulose membrane, expressed as percentage of control, EXP. 2, ribonucleotide 0.1 mM) | remaining activity at 500 µM (read-out: % of [32P]-labeled reovirus ssRNA retained on nitrocellulose membrane, expressed as percentage of control, EXP. 2, ribonucleotide 0.5 mM) | remaining activity at 1000 µM (read-out: % of [32P]-labeled reovirus ssRNA retained on nitrocellulose membrane, expressed as percentage of control, EXP. 2, ribonucleotide 1 mM) | remaining activity at 2000 µM (read-out: % of [32P]-labeled reovirus ssRNA retained on nitrocellulose membrane, expressed as percentage of control, EXP. 2, ribonucleotide 2 mM)
1 | Nc1ncnc2c1ncn2[C@@H]1O[C@H](COP(=O)(O)OP(=O)(O)OP(=O)(O)O)[C@@H](O)[C@H]1O [ATP] | 61% | 95% |  |  |  | 
2 | Nc1ccn([C@@H]2O[C@H](COP(=O)(O)OP(=O)(O)OP(=O)(O)O)[C@@H](O)[C@H]2O)c(=O)n1 [CTP] | 58% | 81% |  |  |  | 
3 | Nc1nc2c(ncn2[C@@H]2O[C@H](COP(=O)(O)OP(=O)(O)OP(=O)(O)O)[C@@H](O)[C@H]2O)c(=O)[nH]1 [GTP] | 5% | 0% | 93% | 95% | 29% | 15%
4 | O=c1ccn([C@@H]2O[C@H](COP(=O)(O)OP(=O)(O)OP(=O)(O)O)[C@@H](O)[C@H]2O)c(=O)[nH]1 [UTP] | 59% | 68% |  |  |  | 

— patent US4764460A, “Recombinant sigma NS protein” (priority 1985, dated 1988)
